{
  "source": "paper PMC5590943",
  "about": "“Pharmacological characterisation of S 47445, a novel positive allosteric modulator of AMPA receptors” (PLoS ONE, 2017)",
  "key": {"[1]": {"test_system": "recombinant human AMPA receptors (GluA1, GluA2 and GluA4 flip and flop variants)", "assay": "Glutamate-evoked currents, oocytes, across GluA recombinants", "type": "cell-based", "conditions": "all tested subtypes except GluA4 flop; read-out: EC50 values among most GluA recombinants", "protocol": "Compounds were tested by bath application."}, "male NMRI mice": {"test_system": "male NMRI mice", "assay": "Functional observation battery in mice", "type": "in vivo, mouse", "protocol": "The effect of 47445 after high doses administration was assessed on general behaviour in mice. Male NMRI mice (18–22 g, Janvier Labs, Le Genest Saint Isle, France) were used and placed individually for habituation, 15 min before administration. Room temperature was maintained at 20.9°C during experimentation. At T0 min, body temperature was monitored via a rectal probe connected to a computer (Viewpoint). Mice were then orally treated with S 47445 (30, 100 and 300 mg/kg) or vehicle. […] Delta of body temperature compared to T0 min (°C) was calculated. Groups were compared for body temperature at T0 min with a one-way ANOVA followed by Tukey’s pair-wise comparison post hoc tests. The treatment effect on delta of body temperature compared to T0 min was analysed using a two-way ANOVA followed by Dunnett’s post hoc tests. Analyses were performed using SAS v9.2 software (SAS Institute, Cary, NC)."}, "Male Wistar rats": {"test_system": "Male Wistar rats", "assay": "Functional observation battery in rats (Irwin)", "type": "in vivo, rat", "protocol": "Any effects on body temperature were also assessed. Methods were adapted from those described by Irwin, 1968 for detecting behavioural effects in mice.\nMale Wistar rats (Depré breeding centre, France), 6 weeks of age (160.0–190.6 g) on the day of randomisation were used. On the day of the test, animals were first scored using the Irwin standardised observation battery, and the body temperature was measured to establish baseline measurements. Groups of rats were then orally treated with S 47445 (50, 200, 500 and 1000 mg/kg) or its vehicle or clonidine, a reference item (3 mg/kg in water). The Irwin scores as well as measurement of body temperature were performed again at 1, 2, 4, 6 and 24 hours after administration of S 47445. Individual observation data were presented as a score attributed to each behavioural sign (intensity and relevance). For observations with absence or presence, the number of animals with the sign was provided per group. For other observations, the median value for each sign per time was presented per group. For body temperature, data were expressed as variations from predose values. […] The treatment effect on body temperature was analysed using one way ANOVA followed by Newman-Keul’s post hoc test. […]"}, "[2]": {"set-up": "method as in previous kinetic experiments (reference not given)", "conditions": "0.3 mg/kg oral, mice; ref previous kinetic experiments (reference not given); read-out: Cerebral Cmax; cited from earlier work"}, "mature form of BDNF": {"test_system": "mature form of BDNF", "set-up": "method as in PMID 7718245", "conditions": "aged rats, from the dose of 1 mg/kg; cited from earlier work"}, "GABA (non-selective)": {"test_system": "GABA (non-selective)", "assay": "Binding assay, [3H]GABA"}, "SK^+Ca channel": {"test_system": "SK^+Ca channel", "assay": "Binding assay, [125I]apamin"}, "A2A (h)": {"target": "A2A (h) (Homo sapiens, UniProt P29274)", "sequence (P29274 whole entry)": "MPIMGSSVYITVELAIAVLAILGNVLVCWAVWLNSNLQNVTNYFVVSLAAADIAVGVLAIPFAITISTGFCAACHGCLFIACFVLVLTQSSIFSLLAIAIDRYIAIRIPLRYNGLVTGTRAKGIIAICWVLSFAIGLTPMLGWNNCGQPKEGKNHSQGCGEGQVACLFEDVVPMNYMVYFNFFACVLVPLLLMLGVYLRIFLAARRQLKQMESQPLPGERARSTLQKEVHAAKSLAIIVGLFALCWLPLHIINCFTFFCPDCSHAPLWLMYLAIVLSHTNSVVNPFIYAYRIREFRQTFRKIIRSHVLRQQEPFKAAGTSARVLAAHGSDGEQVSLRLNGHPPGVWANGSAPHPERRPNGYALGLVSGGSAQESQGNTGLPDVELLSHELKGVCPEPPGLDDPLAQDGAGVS", "assay": "Binding assay, [3H]CGS 21680"}, "α2 (non-selective)": {"test_system": "α2 (non-selective)", "assay": "Binding assay, [3H]RX 821002"}, "[3]": {"test_system": "Ca2+ channel (L, diltiazem site) (benzothiazepines)", "assay": "Binding assay, [3H]diltiazem"}, "BZD (central)": {"test_system": "BZD (central)", "assay": "Binding assay, [3H]flunitrazepam"}, "[4]": {"test_system": "Ca2+ channel (L, DHP site)", "assay": "Binding assay, [3H](+)PN 200-110"}, "ATPase (Na+/K+)": {"test_system": "ATPase (Na+/K+)", "assay": "Enzyme and cell-based assay, ATP (2 mM)"}, "5-HT1B": {"target": "5-HT1B (Rattus norvegicus, UniProt P28564)", "sequence (P28564 whole entry)": "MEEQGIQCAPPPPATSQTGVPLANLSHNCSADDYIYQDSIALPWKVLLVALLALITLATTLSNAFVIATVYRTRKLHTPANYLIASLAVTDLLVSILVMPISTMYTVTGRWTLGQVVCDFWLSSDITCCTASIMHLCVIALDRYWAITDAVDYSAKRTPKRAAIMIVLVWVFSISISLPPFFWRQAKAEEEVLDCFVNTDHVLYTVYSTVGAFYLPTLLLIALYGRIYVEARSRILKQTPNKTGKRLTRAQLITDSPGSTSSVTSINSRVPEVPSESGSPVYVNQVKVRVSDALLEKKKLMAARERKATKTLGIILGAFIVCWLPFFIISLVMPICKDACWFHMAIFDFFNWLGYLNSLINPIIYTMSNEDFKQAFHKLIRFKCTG", "assay": "Binding assay, [125I]CYP (+ 30 μM (-)propranolol)", "conditions": "probe [125I]CYP"}, "p38a kinase (h)": {"target": "p38a kinase (h) (Homo sapiens, UniProt Q16539)", "sequence (Q16539 whole entry)": "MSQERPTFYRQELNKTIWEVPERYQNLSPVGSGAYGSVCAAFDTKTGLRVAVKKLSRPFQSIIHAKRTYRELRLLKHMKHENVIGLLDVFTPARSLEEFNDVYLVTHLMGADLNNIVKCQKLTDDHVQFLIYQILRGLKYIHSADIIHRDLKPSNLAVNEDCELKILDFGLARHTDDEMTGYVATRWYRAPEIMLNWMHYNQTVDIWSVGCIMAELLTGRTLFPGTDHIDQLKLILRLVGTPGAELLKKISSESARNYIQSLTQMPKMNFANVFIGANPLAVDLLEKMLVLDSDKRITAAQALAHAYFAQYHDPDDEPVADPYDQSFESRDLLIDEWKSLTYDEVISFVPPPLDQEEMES", "assay": "Enzyme and cell-based assay, ATP + ATF-2 (0.1 μM)"}, "EGFR kinase (h)": {"target": "EGFR kinase (h) (Homo sapiens, UniProt P00533)", "sequence (P00533 25-1210)": "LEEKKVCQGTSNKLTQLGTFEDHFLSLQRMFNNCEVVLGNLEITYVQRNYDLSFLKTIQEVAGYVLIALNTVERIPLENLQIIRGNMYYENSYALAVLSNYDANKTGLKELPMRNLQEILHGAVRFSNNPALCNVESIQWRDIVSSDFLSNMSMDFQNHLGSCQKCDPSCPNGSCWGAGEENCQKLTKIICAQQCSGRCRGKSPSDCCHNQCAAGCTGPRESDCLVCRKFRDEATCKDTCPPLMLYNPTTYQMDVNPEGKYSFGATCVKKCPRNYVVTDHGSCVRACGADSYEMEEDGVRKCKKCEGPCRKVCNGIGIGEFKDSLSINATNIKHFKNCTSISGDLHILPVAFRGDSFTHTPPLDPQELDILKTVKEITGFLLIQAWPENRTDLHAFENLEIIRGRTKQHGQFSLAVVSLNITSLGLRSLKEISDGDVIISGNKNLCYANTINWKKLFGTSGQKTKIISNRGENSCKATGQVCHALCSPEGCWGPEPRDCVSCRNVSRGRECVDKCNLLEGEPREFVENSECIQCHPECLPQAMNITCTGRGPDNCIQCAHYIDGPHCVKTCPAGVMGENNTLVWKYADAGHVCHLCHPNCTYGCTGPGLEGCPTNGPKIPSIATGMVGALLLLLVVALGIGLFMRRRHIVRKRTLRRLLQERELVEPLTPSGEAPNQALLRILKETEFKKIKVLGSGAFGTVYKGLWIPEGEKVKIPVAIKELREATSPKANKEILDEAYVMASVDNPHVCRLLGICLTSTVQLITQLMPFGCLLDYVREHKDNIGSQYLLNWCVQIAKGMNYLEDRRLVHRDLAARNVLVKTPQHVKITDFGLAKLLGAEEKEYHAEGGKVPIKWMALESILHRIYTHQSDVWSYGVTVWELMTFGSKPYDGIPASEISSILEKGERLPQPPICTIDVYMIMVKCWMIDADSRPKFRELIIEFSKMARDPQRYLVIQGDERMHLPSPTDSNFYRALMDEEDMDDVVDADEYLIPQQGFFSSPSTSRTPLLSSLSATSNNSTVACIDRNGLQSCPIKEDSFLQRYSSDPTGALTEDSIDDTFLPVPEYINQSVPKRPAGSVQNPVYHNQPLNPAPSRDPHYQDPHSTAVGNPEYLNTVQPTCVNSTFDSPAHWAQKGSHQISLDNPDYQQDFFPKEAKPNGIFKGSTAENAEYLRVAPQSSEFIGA", "assay": "Enzyme and cell-based assay, ATP + biotinyl peptide (0.1 μM)"}, "Kainate": {"test_system": "Kainate", "assay": "Binding assay, [3H]kainic acid, rat cerebral cortex membranes"}, "[5]": {"target": "human GluK2 kainate receptors (Homo sapiens, UniProt Q13002)", "sequence (Q13002 32-908)": "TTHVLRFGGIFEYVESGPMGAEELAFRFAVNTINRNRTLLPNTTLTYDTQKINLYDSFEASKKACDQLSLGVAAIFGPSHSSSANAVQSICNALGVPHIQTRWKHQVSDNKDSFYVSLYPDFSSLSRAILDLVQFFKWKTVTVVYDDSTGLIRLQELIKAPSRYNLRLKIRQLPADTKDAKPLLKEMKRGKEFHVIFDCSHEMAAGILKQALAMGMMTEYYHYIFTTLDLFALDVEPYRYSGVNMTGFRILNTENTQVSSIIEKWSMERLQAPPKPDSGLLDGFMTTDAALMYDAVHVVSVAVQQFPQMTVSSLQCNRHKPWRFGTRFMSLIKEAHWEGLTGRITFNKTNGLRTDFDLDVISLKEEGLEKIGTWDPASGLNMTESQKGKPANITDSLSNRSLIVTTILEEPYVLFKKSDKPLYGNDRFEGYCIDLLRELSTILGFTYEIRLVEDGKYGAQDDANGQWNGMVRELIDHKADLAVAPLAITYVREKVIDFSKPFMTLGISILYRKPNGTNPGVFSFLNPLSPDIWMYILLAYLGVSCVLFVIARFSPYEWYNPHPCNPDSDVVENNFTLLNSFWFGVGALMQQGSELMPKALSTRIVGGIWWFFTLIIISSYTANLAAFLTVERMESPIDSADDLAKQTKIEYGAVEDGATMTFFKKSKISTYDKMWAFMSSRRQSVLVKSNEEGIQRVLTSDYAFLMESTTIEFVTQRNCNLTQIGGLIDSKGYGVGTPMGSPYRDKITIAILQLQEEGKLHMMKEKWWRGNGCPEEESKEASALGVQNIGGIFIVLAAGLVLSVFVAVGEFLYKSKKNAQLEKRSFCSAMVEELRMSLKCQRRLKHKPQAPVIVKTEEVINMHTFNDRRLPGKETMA", "assay": "Glutamate-evoked current in oocytes expressing kainate receptors", "conditions": "up to 100 μM; n = 12"}, "kainate receptors": {"test_system": "kainate receptors", "assay": "Kainate-evoked currents, oocytes injected with rat cortex poly(A+) mRNA", "conditions": "n = 3"}},
  "data": [
    {"smiles": "O=C1c2cc3nnn(CCc4cccc(F)c4)c(=O)c3cc2OCN1C1CC1", "note": "[S 47445, 8-cyclopropyl-3-[2-(3-fluorophenyl)ethyl]-7,8-dihydro-3H-[1,3]oxazino[6,5-g][1,2,3]benzotriazine-4,9-dione]", "values": [
      {"measurement": "EC50", "setting": "[1]", "value": "2.5 to 5.4", "unit": "µM"},
      {"measurement": "Body temperature and behavior", "setting": "male NMRI mice; 30, 100 and 300 mg/kg oral acute", "value": "no significant effect"},
      {"measurement": "Spontaneous epileptic seizures", "setting": "male NMRI mice; up to 300 mg/kg p.o.", "value": "No occurrence"},
      {"measurement": "Body temperature and behavior", "setting": "Male Wistar rats; 50, 200, 500 and 1000 mg/kg oral acute", "value": "no significant effect"},
      {"measurement": "Spontaneous epileptic seizures", "setting": "Male Wistar rats; up to 1000 mg/kg p.o.", "value": "No occurrence"},
      {"measurement": "Cmax", "setting": "[2]", "value": "100 to 200", "unit": "nM"},
      {"measurement": "Neurotrophic effect on BDNF proteins", "setting": "mature form of BDNF", "value": "inducing mature form of BDNF proteins"},
      {"measurement": "% Inhibition of control specific binding", "setting": "GABA (non-selective); S 47445 1.0E-05 M", "value": 7, "unit": "%"},
      {"measurement": "% Inhibition of control specific binding", "setting": "GABA (non-selective); S 47445 1.0E-07 M", "value": 4, "unit": "%"},
      {"measurement": "% Inhibition of control specific binding", "setting": "SK^+Ca channel; S 47445 1.0E-05 M", "value": -10, "unit": "%"},
      {"measurement": "% Inhibition of control specific binding", "setting": "SK^+Ca channel; S 47445 1.0E-07 M", "value": 13, "unit": "%"},
      {"measurement": "% Inhibition of control specific binding", "setting": "A2A (h); S 47445 1.0E-05 M", "value": 9, "unit": "%"},
      {"measurement": "% Inhibition of control specific binding", "setting": "A2A (h); S 47445 1.0E-07 M", "value": -8, "unit": "%"},
      {"measurement": "% Inhibition of control specific binding", "setting": "α2 (non-selective); S 47445 1.0E-05 M", "value": -5, "unit": "%"},
      {"measurement": "% Inhibition of control specific binding", "setting": "α2 (non-selective); S 47445 1.0E-07 M", "value": -2, "unit": "%"},
      {"measurement": "% Inhibition of control specific binding", "setting": "[3]; S 47445 1.0E-05 M", "value": 25, "unit": "%"},
      {"measurement": "% Inhibition of control specific binding", "setting": "[3]; S 47445 1.0E-07 M", "value": -6, "unit": "%"},
      {"measurement": "% Inhibition of control specific binding", "setting": "BZD (central); S 47445 1.0E-05 M", "value": -21, "unit": "%"},
      {"measurement": "% Inhibition of control specific binding", "setting": "BZD (central); S 47445 1.0E-07 M", "value": -2, "unit": "%"},
      {"measurement": "% Inhibition of control specific binding", "setting": "[4]; S 47445 1.0E-05 M", "value": 1, "unit": "%"},
      {"measurement": "% Inhibition of control specific binding", "setting": "[4]; S 47445 1.0E-07 M", "value": -16, "unit": "%"},
      {"measurement": "% Inhibition of control specific binding", "setting": "ATPase (Na+/K+); S 47445 1.0E-05 M", "value": -2, "unit": "%"},
      {"measurement": "% Inhibition of control specific binding", "setting": "ATPase (Na+/K+); S 47445 1.0E-07 M", "value": -3, "unit": "%"},
      {"measurement": "inhibition at 100 nM", "setting": "5-HT1B", "value": -7, "unit": "%"},
      {"measurement": "inhibition at 10 µM", "setting": "5-HT1B", "value": -3, "unit": "%"},
      {"measurement": "% Inhibition of control specific binding", "setting": "p38a kinase (h); S 47445 1.0E-05 M", "value": 4, "unit": "%"},
      {"measurement": "% Inhibition of control specific binding", "setting": "p38a kinase (h); S 47445 1.0E-07 M", "value": 2, "unit": "%"},
      {"measurement": "% Inhibition of control specific binding", "setting": "EGFR kinase (h); S 47445 1.0E-05 M", "value": 0, "unit": "%"},
      {"measurement": "% Inhibition of control specific binding", "setting": "EGFR kinase (h); S 47445 1.0E-07 M", "value": -8, "unit": "%"},
      {"measurement": "% Inhibition of control specific binding", "setting": "Kainate; S 47445 1.0E-05 M", "value": 25, "unit": "%"},
      {"measurement": "% Inhibition of control specific binding", "setting": "Kainate; S 47445 1.0E-07 M", "value": 7, "unit": "%"},
      {"measurement": "Ki", "setting": "Kainate; read-out: Ki, glutamate binding site, n = 2", "value": "> 10", "unit": "µM"},
      {"measurement": "Effect on glutamate-evoked current", "setting": "[5]", "value": "did not modify glutamate-evoked current"},
      {"measurement": "Effect at kainate-evoked currents", "setting": "kainate receptors", "value": "absence of effect"}
    ]}
  ]
}
